From patent US20100087539A1, “N'--3-AMINO-3-PHENYLPROPEONIC ACID AND THE PHARMACEUTICALLY ACCEPTABLE DERIVATIVES THEREOF, A METHOD FOR THE PRODUCTION AND THE USE THEREOF IN THE FORM OF A MEDICINAL AGENT” (priority 2006, published 2010)
“And” between values parts separate entries of the source, which are not always exact repeats. Equal entries are not always repeated. Where two headings read alike, the source gives them in different places.

Experiments:
HIV-1/EVK [1] = test: microbe, parasite or virus in culture; assay type: cell-based; conditions: added after virus adsorption; for EC50: read-out: Protection of cells from death PD50
Description: The Anti-HIV activity of dipeptide 1 was studied on a highly HIV-sensitive cell culture MT-4. […] Then, aliquots of serial dilutions of dipeptide 1 in DMSO were added into the wells to the final concentrations of 0.1 ng/ml to 1 μg/ml (each concentration in triplicate). The experimental (with the preparation added) and control (without the preparation added) infected cells were cultivated at 37° C. and 5% CO2 for 4 days. […] 3, p. […] The inhibiting dose for dipeptide 1 is 0.4 μM. The dose of the compound protecting the cells from death (PD50) was also determined. […] Additionally, the selectivity index (IS) calculated as a ratio of the toxic dose of dipeptide 1 to the protection dose thereof PD50 (CD50/PD50) was determined.

MT-4 cells [2] = conditions: human, 4 days
T-cellular immunity = T-cellular immunity upon immunization with sheep red blood cells, rosette formation method; assay type: in vivo, mice; conditions: for Number of rosettes per 10^3 cells: mice, s.c. SRBC with compound (10 mg/kg), splenocytes at day 6; for Stimulation index: rosettes with compound / rosettes with SRBC alone
Description: The effect on stimulating T-cellular immunity upon injection with a strong antigen of sheep red blood cells (SRBC) was studied by the rosette formation method.
Outbred male mice weighing 20-22 g were used in the experiment. […] SRBC without dipeptide 1 (negative control) or SRBC with IFA or with GA (positive control) were injected to the control animals; another control group—preimmune animals. At day 6 post immunization a suspension of splenocytes was prepared at a concentration of […] per 1 milliliter. 0.9 ml of the splenocyte suspension and 0.1 ml of a suspension of sheep red blood cells (10^9 cells per milliliter) were placed in glass vials, mixed and incubated for 16 h at 4° C. After incubation, 4 ml of a cold medium was added into the glass vial, carefully mixed; 100 μl of cell suspension was withdrawn using a pipette with a wide-bore mouth, stained with a 0.4% trypan blue solution and the number of rosettes was counted in a Gorjaev's chamber [Friemel H Immunological methods/Translated from German, edited by M. A. Frolova.—Moscow: Mir, 1979, 518 p.]. The results are presented as the number of rosettes formed per […]. The stimulation index was calculated as a ratio of the number of rosettes in the experiment (immunization with SRBC in a mixture with the compound studied) and the number of rosettes in the control (immunization with SRBC alone).

B-cellular immunity = B-cellular immunity upon immunization with BSA, specific antibody titer by enzyme-linked immunoassay; assay type: in vivo, mice; conditions: for Antibody titer (inverse value): mice, s.c. BSA with compound, sera at day 10 post second immunization; for Immunogenicity coefficient: relative to BSA without the preparation
Description: 400 μg of BSA was injected subcutaneously to the animals in 0.5 ml of 0.9% NaCl. Three groups of control animals were involved. […] Additionally, glycyrrhizinic acid (GA) was used as a known immunomodulator. Preimmune mice served as a control. At day 21 the second immunization was performed similarly (the injection solution contained 100 μg of BSA and 200 μg of the test compound). At day 10 post the second immunization blood sera were collected. The titer of antibodies was determined by an enzyme-linked immunoassay technique according to the procedure as described [Enzyme-linked immunoassay technique//Edited by T. T. Igo, G. Lenkhoffaju—Moscow: Mir, 1998].

HIV-1/EVK [3] = test: microbe, parasite or virus in culture; assay type: cell-based; conditions: added simultaneously with the virus
Description: The anti-HIV activity of dipeptide 1 was studied on a highly HIV-sensitive cell culture MT-4. The MT-4 cells were added into the wells of a 96-well culture plate and infected with a virus stock (strain HIV-1/EVK) at a multiplicity of infection of 0.2-0.5 tissue culture infective dose per cell, then the test substance was added into a cell suspension simultaneously with the virus to give the final concentration of 0.00001 to 1 μg/ml (each concentration in triplicate) and incubated at 37° C. for 1 h (virus adsorption). On completion of the incubation, the suspension of the infected cells was diluted with a complete growth medium with all supplements as described above containing the preparations in the same concentrations to give the inoculation concentration of 0.5×10^6 cells/ml.
The experimental (with the preparation added) and control (without the preparation added) infected cells and control uninfected cells (without the preparation added) were cultivated at 37° C. and 5% CO2 for 4 days. On completion of the incubation the proportion of viable cells was counted in a Gorjaev's chamber after staining with a 0.4% trypan blue solution and the accumulation level of virus-specific protein p24 was controlled by the immunoenzyme method as described [Fedyuk N. V., Konovalov E. E., Loktev V. B., Uryvaev L. V., Kulyandin S. A., Pokrovsky A. G.//Problems of Virology, 1992, v. 3, p. 135].
In addition, the inhibiting dose ID90 that corresponds to the concentration of dipeptide 1 suppressing the virus production by 90% was determined. […] PD50, the concentration of dipeptide 1 protecting by 50% the infected cells from the virus-induced cytopathic effect was also calculated as described earlier by us [Svinarchuk P. P., Konevetz D. A., Pliasunova O. A., Pokrovsky A. G., Vlassov V. V.//Biochimie, 1993, Bd. 75, S. 243]. […] Comparing the concentrations inducing 50 and 90% inhibition of virus accumulation provides an important characteristic of the anti-viral activity.

MT-4 cells [4] = test: Cytotoxicity on MT-4 cells (trypan blue viable cell count, 4 days); conditions: concentration reducing by 50% the proportion of viable MT-4 cells
white outbred mice = test: Acute toxicity, intraperitoneal injection; assay type: in vivo
Description: 0.5 ml of the compound was injected intraperitoneally to mice weighing 20 g, each group comprising 4 animals. 0.5 ml of sterile sunflower oil was injected to the control mice.

[5] = Human immunodeficiency virus 1, MT4, 96 h, MT-4, HIV-1/EVK, 4 days, read-out: Inhibition of P24 accumulation ID50

| Compound | IS (selectivity index) (HIV-1/EVK [1]; CD50/ID50) | IC50 (HIV-1/EVK [1]; [5]) [µM] | EC50 (HIV-1/EVK [1]; Human immunodeficiency virus 1, MT4, MT-4, HIV-1/EVK) [µM] | Inhibition of P24 accumulation ID90 (HIV-1/EVK [1]; MT-4, HIV-1/EVK, 4 days) | CD50 (MT-4 cells [2]) [µM] | Number of rosettes per 10^3 cells (T-cellular immunity) | Stimulation index (T-cellular immunity) | Antibody titer (inverse value) (B-cellular immunity) | Immunogenicity coefficient (B-cellular immunity) | IS (selectivity index) (HIV-1/EVK [3]; CD50/ID50) | IC50 (HIV-1/EVK [3]; [5]) [µM] | Inhibition of P24 accumulation ID90 (HIV-1/EVK [3]; MT-4, HIV-1/EVK, 4 days) | EC50 (HIV-1/EVK [1]; MT-4, HIV-1/EVK) [µM] | CD50 (MT-4 cells [4]) [µM] | EC50 (HIV-1/EVK [3]; concentration protecting by 50% the infected cells from virus-induced cytopathic effect, read-out: PD50) [µM] | hazard class (white outbred mice; from LD50, mice) | LD50 (white outbred mice; mice of both sexes) |
| --- | --- | --- | --- | --- | --- | --- | --- | --- | --- | --- | --- | --- | --- | --- | --- | --- | --- |
| C=C(C)[C@@H]1CC[C@]2(C(=O)NCCCCCCCCC(=O)NC(CC(=O)O)c3ccccc3)CC[C@]3(C)C(CCC4[C@@]5(C)CCC(=O)C(C)(C)C5CC[C@]43C)C12 (stereo partly drawn) [Compound 9] | 14.0 | 0.4 | 0.5 | Not achieved | 5.6 | 21 ± 1.4 | 1.8 | 51200 | 256 | 2135 | 0.0026 | 0.198 µM |  |  |  |  |  |
| CC1(C)[C@@H](O[C@H]2O[C@H](C(=O)O)[C@@H](O)[C@H](O)[C@H]2O[C@@H]2O[C@H](C(=O)O)[C@@H](O)[C@H](O)[C@H]2O)CC[C@]2(C)[C@H]3C(=O)C=C4[C@@H]5C[C@@](C)(C(=O)O)CC[C@]5(C)CC[C@@]4(C)[C@]3(C)CC[C@@H]12 [GA, glycyrrhizinic acid] |  |  |  |  |  | 24 ± 1.1 | 2.0 | 5120 | 25.6 |  |  |  |  |  |  |  |  |
| N′-{N-[3-oxo-lupan-28-oyl]-9-aminononanoyl}-3-amino-3-phenylpropionic acid [Compound 1] |  |  |  | Not achieved |  | 24 ± 1.3 |  |  |  |  |  | 0.10 µM and 0.1 µM | 0.25 | 6.8 | 0.015 | class 3 of moderately hazardous substances | more than 2500 mg/kg |
